pEC50: −log10 of the molar value.
The molecules below were run on HEK293T cells carrying the ATF4 luciferase reporter (assay: ATF4-Luc assay (in vitro model of vanishing white matter disease)). Conditions: Homo sapiens, HEK-293T; HEK293T cells with ATF4 5'-UTR firefly luciferase reporter; 1 μg/mL tunicamycin; 7 hours; One Glo luminescence.
Format: cell-based, human
Method: In order to test exemplary compounds of the invention in a cellular context, a stable VWMD cell line was first constructed. The ATF4 reporter was prepared by fusing the human full-length ATF4 5′-UTR (NCBI Accession No. BC022088.2) in front of the firefly luciferase (FLuc) coding sequence lacking the initiator methionine as described in Sidrauski et al (eLife 2013). The construct was used to produce recombinant retroviruses using standard methods and the resulting viral supernatant was used to transduce HEK293T cells, which were then subsequently selected with puromycin to generate a stable cell line.
HEK293T cells carrying the ATF4 luciferase reporter were plated on polylysine coated 384-well plates (Greiner Bio-one) at 30,000 cells per well. Cells were treated the next day with 1 μg/mL tunicamycin and 200 nM of a compound of Formula (I) for 7 hours. Luminescence was measured using One Glo (Promega) as specified by the manufacturer. Cells were maintained in DMEM with L-glutamine supplemented with 10% heat-inactivated FBS (Gibco) and Antibiotic-Antimycotic solution (Gibco).
Table 2 below summarizes the EC50 data obtained using the ATF4-Luc assay for exemplary compounds of the invention.

Compound	pEC50
O=C(COc1ccc(Cl)c(F)c1)NC12CC(N3CC(c4ccc(Cl)c(F)c4)OC3=O)(C1)C2 (stereo not drawn) [Compound 116, 2-(4-chloro-3-fluorophenoxy)-N-{3-[5-(4-chloro-3-fluorophenyl)-2-oxo-1,3-oxazolidin-3-yl]bicyclo[1.1.1]pentan-1-yl}acetamide]	6.60 to 7.30
O=C(COc1ccc(F)c(Cl)c1)NC12CC(N3Cc4ccccc4C3=O)(C1)C2 [Compound 117, 2-(3-chloro-4-fluorophenoxy)-N-[3-(1-oxo-1,3-dihydro-2H-isoindol-2-yl)bicyclo[1.1.1]pentan-1-yl]acetamide]	6.60 to 7.30
O=C(CCOc1ccc(Cl)cc1)N[C@H]1CC[C@H](N2CCN(c3cnc(C(F)F)cn3)C2=O)CC1 [Compound 118, 3-(4-chlorophenoxy)-N-[(1r,4r)-4-{3-[5-(difluoromethyl)pyrazin-2-yl]-2-oxoimidazolidin-1-yl}cyclohexyl]propanamide]	< 5.70
O=C(CCOc1ccc(Cl)c(F)c1)N[C@H]1CC[C@H](N2CCN(c3cnc(C(F)F)cn3)C2=O)CC1 [Compound 119, 3-(4-chloro-3-fluorophenoxy)-N-[(1r,4r)-4-{3-[5-(difluoromethyl)pyrazin-2-yl]-2-oxoimidazolidin-1-yl}cyclohexyl]propanamide]	6.00 to 6.60
O=C(COc1ccc(Cl)c(Cl)c1)N[C@H]1CC[C@H](N2CCN(c3cnc(C(F)F)cn3)C2=O)CC1 [Compound 120, 2-(3,4-dichlorophenoxy)-N-[(1r,4r)-4-{3-[5-(difluoromethyl)pyrazin-2-yl]-2-oxoimidazolidin-1-yl}cyclohexyl]acetamide]	> 7.30
O=C(COc1ccc(Cl)c(F)c1)N[C@H]1CC[C@H](N2CCN(c3cnc(C(F)F)cn3)C2=O)CC1 [Compound 121, 2-(4-chloro-3-fluorophenoxy)-N-[(1r,4r)-4-{3-[5-(difluoromethyl)pyrazin-2-yl]-2-oxoimidazolidin-1-yl}cyclohexyl]acetamide]	> 7.30
O=C(N[C@H]1CC[C@H](N2CCN(c3cnc(C(F)F)cn3)C2=O)CC1)OCc1ccccc1 [Compound 122, benzyl [(1r,4r)-4-{3-[5-(difluoromethyl)pyrazin-2-yl]-2-oxoimidazolidin-1-yl}cyclohexyl]carbamate]	< 5.70
O=C(N[C@H]1CC[C@H](N2CCN(c3ccc(C(F)F)cn3)C2=O)CC1)c1ccc(Cl)c(F)c1 [Compound 123, 4-chloro-N-[(1r,4r)-4-{3-[5-(difluoromethyl)pyridin-2-yl]-2-oxoimidazolidin-1-yl}cyclohexyl]-3-fluorobenzamide]	< 5.70
O=C(N[C@H]1CC[C@H](N2CCN(c3ccc(C(F)F)cn3)C2=O)CC1)c1ccc(OC(F)(F)F)cn1 [Compound 124, N-[(1r,4r)-4-{3-[5-(difluoromethyl)pyridin-2-yl]-2-oxoimidazolidin-1-yl}cyclohexyl]-5-(trifluoromethoxy)pyridine-2-carboxamide]	< 5.70
O=C(COc1ccc(C(F)(F)F)nc1)N[C@H]1CC[C@H](N2CCN(c3ccc(C(F)F)cn3)C2=O)CC1 [Compound 125, N-[(1r,4r)-4-{3-[5-(difluoromethyl)pyridin-2-yl]-2-oxoimidazolidin-1-yl}cyclohexyl]-2-{[6-(trifluoromethyl)pyridin-3-yl]oxy}acetamide]	6.60 to 7.30
O=C(COc1ccc(F)c(F)c1)N[C@H]1CC[C@H](N2CCN(c3ccc(C(F)F)cn3)C2=O)CC1 [Compound 126, N-[(1r,4r)-4-{3-[5-(difluoromethyl)pyridin-2-yl]-2-oxoimidazolidin-1-yl}cyclohexyl]-2-(3,4-difluorophenoxy)acetamide]	> 7.30
O=C(COc1ccc(OC(F)(F)F)cc1)N[C@H]1CC[C@H](N2CCN(c3ccc(C(F)F)cn3)C2=O)CC1 [Compound 127, N-[(1r,4r)-4-{3-[5-(difluoromethyl)pyridin-2-yl]-2-oxoimidazolidin-1-yl}cyclohexyl]-2-[4-(trifluoromethoxy)phenoxy]acetamide]	6.00 to 6.60

From patent US20200347033A1, “MODULATORS OF THE INTEGRATED STRESS PATHWAY” (Calico Life Sciences LLC, priority 2017, published 2020)
